# Laboratory results from patent publication US20220322673A1, “Novel Agrochemical Combinations” (UPL LIMITED, priority 2019, published 2022).
# Read-outs that look alike come from different tables or passages of the source.
# Columns and labels:
# Type in all cases: in vivo
# [1] = tested on: Okra Mites; assay: Trials on controlling Okra Mites post 2nd and 3rd application (Example 2); conditions: doses gm/ha: OSA 625 + Flonicamid 50 / Acetamipirid 50 / Lancer Gold 650, solo OSA 1250, Flonicamid 75, Acetamipirid 50, Lancer gold 650
# Protocol: Trials were conducted to test the efficacy of the combination of Flonicamid and Orthosilicic acid on controlling Okra Mites at different dosages post 2nd and 3rd application.
# [2] = tested on: Okra Aphids; assay: Trials of Flonicamid and Orthosilicic acid on controlling Okra Aphids (Example 1); conditions: doses gm/ha: OSA + Flonicamid 625 + 50, Flonicamid 75, OSA 1250
# Protocol: Trials were conducted to test the efficacy of the combination of Flonicamid and Orthosilicic acid on controlling Okra Aphids at different dosages.
# [3] = tested on: Okra Aphids (Aphis gossypii); conditions: for Percent control (%) of Okra Aphids, Nymphs + Adults, A01: A01 = 1 day after first spray; for Percent control (%) of Okra Aphids, Nymphs + Adults, B03: B03 = 3 days after 2nd spray; for Percent control (%) of Okra Aphids, Nymphs + Adults, B07: B07 (after 2nd spray); for Percent control (%) of Okra Aphids, Nymphs + Adults, B10: B10 (after 2nd spray); for Percent control (%) of Okra Aphids, Nymphs + Adults, C03: C03 = 3 days after third spray; for Percent control (%) of Okra Aphids, Nymphs + Adults, C10: C10 (after third spray)
# From the text: (§1) In this evaluation, feeding damage & insect population on Okra Leaves before and after sprays is averaged and analyzed for the test of significance. Application method: Three applications (application A, B and C) within an interval of 14 days.
# [4] = tested on: Okra Jassids (Amrasca bigutulla bigutulla); conditions: for Percent control (%) of Okra Jassids, Nymphs + Adults, A01: A01 = 1 day after first spray; for Percent control (%) of Okra Jassids, Nymphs + Adults, A10: A10 (after 1st spray); for Percent control (%) of Okra Jassids, Nymphs + Adults, B03: B03 = 3 days after 2nd spray; for Percent control (%) of Okra Jassids, Nymphs + Adults, B07: B07 (after 2nd spray); for Percent control (%) of Okra Jassids, Nymphs + Adults, B10: B10 (after 2nd spray); for Percent control (%) of Okra Jassids, Nymphs + Adults, B14: B14 (after 2nd spray); for Percent control (%) of Okra Jassids, Nymphs + Adults, C03: C03 = 3 days after third spray; for Percent control (%) of Okra Jassids, Nymphs + Adults, C10: C10 (after third spray)
# From the text: as §1
# [5] = tested on: Corn FAW (Spodoptera frugiperda); conditions: for Percent control (%) A01: A01 = 1 day after first spray; for Percent control (%) A14: A14 = 14 days after 1st spray; for Percent control (%) B03: B03 = 3 days after 2nd spray; for Percent control (%) B07: B07 (after 2nd spray); for Percent control (%) B10: B10 (after 2nd spray); for Percent control (%) B21: B21 (after 2nd spray)
# From the text: Application method: Two applications (application A and B) within an interval of 14 days. A01=1 day after first spray, A14=14 days after 1st spray, B03=3 days after 2nd spray.
# [6] = doses gm a.i./ha: OSA 25, Flonicamid 100, Acephate+Imidacloprid 520, Flonicamid+Fipronil 100+50, Imidacloprid 24.5, Acetamiprid 15
# [7] = reduced insecticide dose, gm a.i./ha: OSA 25, Flonicamid (Ulala) 75, Acephate+Imidacloprid 390, Flonicamid+Fipronil 75+37.5, Imidacloprid 18.3, Acetamiprid 11.2
# [8] = 25% reduced dose rate, gm a.i./ha: OSA 25, Flonicamid 75, Acephate+Imidacloprid 390, Flonicamid+Fipronil 75+37.5, Imidacloprid 18.3, Acetamiprid 11.2
# [9] = 25% reduced dose of insecticide, gm a.i./ha: OSA 25, CTPR 22.5, Acephate 730, Novaluron 56, Novaluron+Lambda cyhalothrin 67.5, Novaluron+Emamectin 93.5
# [10] = doses gm a.i./ha: OSA 25, CTPR 30, Acephate 970, Novaluron 75, Novaluron+Lambda cyhalothrin 90, Novaluron+Emamectin 125
substance,measurement,setting,value
orthosilicic acid [OSA],Percent control B07,[1]; B07,10%
same,Percent control C-01,[1]; C-01,19.3%
same,Percent control C-10,[1]; C-10,11.7%
same,Percent control Mean,"[1]; Mean of B07, C-01, C-10",13.66%
same,Percent control B01,[2]; B01,29.6%
same,Percent control C-01,[2]; C-01,23.3%
same,Percent control C-10,[2]; C-10,26.7%
same,Percent control Mean,"[2]; Mean of B01, C-01, C-10",26.53%
same,"Percent control (%) of Okra Aphids, Nymphs + Adults, A01",[3]; [6],32.3%
same,"Percent control (%) of Okra Aphids, Nymphs + Adults, A01",[3]; [7],30.2%
same,"Percent control (%) of Okra Aphids, Nymphs + Adults, A10","[3]; A10 (after 1st spray), doses gm a.i./ha: OSA 25, Flonicamid 100, Acephate+Imidacloprid 520, Flonicamid+Fipronil 100+50, Imidacloprid 24.5, Acetamiprid 15",48.5%
same,"Percent control (%) of Okra Aphids, Nymphs + Adults, A14","[3]; A14 = 14 days after 1st spray, reduced insecticide dose, gm a.i./ha: OSA 25, Flonicamid (Ulala) 75, Acephate+Imidacloprid 390, Flonicamid+Fipronil 75+37.5, Imidacloprid 18.3, Acetamiprid 11.2",47%
same,"Percent control (%) of Okra Aphids, Nymphs + Adults, B03",[3]; [6],52%
same,"Percent control (%) of Okra Aphids, Nymphs + Adults, B03",[3]; [7],55%
same,"Percent control (%) of Okra Aphids, Nymphs + Adults, B07",[3]; [6],56%
same,"Percent control (%) of Okra Aphids, Nymphs + Adults, B07",[3]; [7],57.7%
same,"Percent control (%) of Okra Aphids, Nymphs + Adults, B10",[3]; [6],56.1%
same,"Percent control (%) of Okra Aphids, Nymphs + Adults, B10",[3]; [7],55.7%
same,"Percent control (%) of Okra Aphids, Nymphs + Adults, C03",[3]; [6],57%
same,"Percent control (%) of Okra Aphids, Nymphs + Adults, C03",[3]; [7],59.4%
same,"Percent control (%) of Okra Aphids, Nymphs + Adults, C10",[3]; [6],59.7%
same,"Percent control (%) of Okra Aphids, Nymphs + Adults, C10",[3]; [7],60.3%
same,"Percent control (%) of Okra Jassids, Nymphs + Adults, A01",[4]; [8],27.9%
same,"Percent control (%) of Okra Jassids, Nymphs + Adults, A01",[4]; [6],25.3%
same,"Percent control (%) of Okra Jassids, Nymphs + Adults, A10",[4]; [8],37%
same,"Percent control (%) of Okra Jassids, Nymphs + Adults, A10",[4]; [6],35.8%
same,"Percent control (%) of Okra Jassids, Nymphs + Adults, B03",[4]; [8],40.9%
same,"Percent control (%) of Okra Jassids, Nymphs + Adults, B03",[4]; [6],42.7%
same,"Percent control (%) of Okra Jassids, Nymphs + Adults, B07",[4]; [8],47.9%
same,"Percent control (%) of Okra Jassids, Nymphs + Adults, B07",[4]; [6],46.5%
same,"Percent control (%) of Okra Jassids, Nymphs + Adults, B10",[4]; [8],48.6%
same,"Percent control (%) of Okra Jassids, Nymphs + Adults, B10",[4]; [6],45.5%
same,"Percent control (%) of Okra Jassids, Nymphs + Adults, B14",[4]; [8],43%
same,"Percent control (%) of Okra Jassids, Nymphs + Adults, B14",[4]; [6],44.7%
same,"Percent control (%) of Okra Jassids, Nymphs + Adults, C03",[4]; [8],45.5%
same,"Percent control (%) of Okra Jassids, Nymphs + Adults, C03",[4]; [6],46.9%
same,"Percent control (%) of Okra Jassids, Nymphs + Adults, C10",[4]; [8],49.1%
same,"Percent control (%) of Okra Jassids, Nymphs + Adults, C10",[4]; [6],48.6%
same,Percent control (%) A01,[5]; [9],29.3%
same,Percent control (%) A01,[5]; [10],32.4%
same,Percent control (%) A14,[5]; [9],44.8%
same,Percent control (%) A14,[5]; [10],47.4%
same,Percent control (%) B03,[5]; [9],51.9%
same,Percent control (%) B03,[5]; [10],53.7%
same,Percent control (%) B07,[5]; [9],61.4%
same,Percent control (%) B07,[5]; [10],58.6%
same,Percent control (%) B10,[5]; [9],57.9%
same,Percent control (%) B10,[5]; [10],60.6%
same,Percent control (%) B21,[5]; [9],56.5%
same,Percent control (%) B21,[5]; [10],59.0%
